Source: ChEMBL document CHEMBL5226363, “Alkaloids and Coumarins with Adiponectin-Secretion-Promoting Activities from the Leaves of Orixa japonica” (J Nat Prod, 2023)
Calls of active or inactive are those of the source. The calls are words filed in the database; no cut-off is given here.

Experiments:
Mesenchymal stem cells = test: Cytotoxicity against human BMMSC cells assessed as reduction in cell viability at 10 uM incubated for 72 hrs by CCK8 assay; format: toxicity, cell-based
[1] = molecular target: T1, Peroxisome proliferator-activated receptor gamma (Homo sapiens, UniProt P37231); test: Agonist activity at PPARgamma in human BMMSC cells assessed as promotion of adiponectin secretion by measuring increase in adiponectin level in presence of IDX medium by ELISA; format: cell-based
T1 sequence (P37231 whole entry): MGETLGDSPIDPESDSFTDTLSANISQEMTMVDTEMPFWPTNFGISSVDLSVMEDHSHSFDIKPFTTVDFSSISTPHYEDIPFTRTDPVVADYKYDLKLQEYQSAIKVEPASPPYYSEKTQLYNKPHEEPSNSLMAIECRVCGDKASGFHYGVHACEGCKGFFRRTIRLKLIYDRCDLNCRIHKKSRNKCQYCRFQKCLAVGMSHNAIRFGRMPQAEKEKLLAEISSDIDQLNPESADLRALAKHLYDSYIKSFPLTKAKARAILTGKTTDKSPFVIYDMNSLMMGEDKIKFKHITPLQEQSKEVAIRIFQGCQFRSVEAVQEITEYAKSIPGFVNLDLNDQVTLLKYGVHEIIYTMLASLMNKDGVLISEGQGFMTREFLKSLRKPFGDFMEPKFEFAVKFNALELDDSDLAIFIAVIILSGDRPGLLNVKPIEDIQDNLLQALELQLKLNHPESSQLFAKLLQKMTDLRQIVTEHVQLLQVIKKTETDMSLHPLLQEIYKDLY

[2] = molecular target: T2, Oxysterols receptor LXR-beta (Homo sapiens) (UniProt P55055); test: Agonist activity at GST-tagged LXR-beta ligand binding domain (unknown origin) at 10 uM LanthaScreen TR-FRET Coactivator assay
T2 sequence (whole entry): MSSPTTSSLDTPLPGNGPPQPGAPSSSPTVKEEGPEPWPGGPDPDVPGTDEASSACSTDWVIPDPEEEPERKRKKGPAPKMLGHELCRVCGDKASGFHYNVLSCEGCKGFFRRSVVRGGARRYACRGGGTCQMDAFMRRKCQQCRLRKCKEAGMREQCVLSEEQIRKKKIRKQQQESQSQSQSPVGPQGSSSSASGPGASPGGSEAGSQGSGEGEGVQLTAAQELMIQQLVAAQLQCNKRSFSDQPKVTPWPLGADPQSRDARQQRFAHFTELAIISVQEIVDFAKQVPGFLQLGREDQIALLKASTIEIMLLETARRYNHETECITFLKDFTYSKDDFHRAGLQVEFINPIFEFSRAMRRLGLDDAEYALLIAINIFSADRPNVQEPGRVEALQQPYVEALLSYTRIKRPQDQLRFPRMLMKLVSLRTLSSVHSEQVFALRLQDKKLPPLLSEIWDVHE

[3] = molecular target: T3, Peroxisome proliferator-activated receptor delta (Homo sapiens) (UniProt Q03181); test: Displacement of fluormone pan-PPARgreen from GST-tagged human PPARdelta ligand binding domain at 10 uM by LanthaScreen TR-FRET competitive binding assay
T3 sequence (whole entry): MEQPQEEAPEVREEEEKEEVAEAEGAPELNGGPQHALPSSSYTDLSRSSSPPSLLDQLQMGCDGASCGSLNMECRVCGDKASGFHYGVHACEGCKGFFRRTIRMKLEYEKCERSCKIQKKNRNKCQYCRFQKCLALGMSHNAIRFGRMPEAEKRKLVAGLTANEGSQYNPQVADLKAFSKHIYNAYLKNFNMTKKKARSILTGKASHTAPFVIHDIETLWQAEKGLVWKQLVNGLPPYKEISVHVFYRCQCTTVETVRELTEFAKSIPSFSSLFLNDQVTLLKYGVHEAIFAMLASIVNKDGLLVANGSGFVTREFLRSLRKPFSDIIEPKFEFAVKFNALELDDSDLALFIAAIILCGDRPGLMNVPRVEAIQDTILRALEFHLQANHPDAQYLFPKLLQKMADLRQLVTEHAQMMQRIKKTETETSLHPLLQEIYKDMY

[4] = molecular target: T4, Peroxisome proliferator-activated receptor gamma (Homo sapiens) (UniProt P37231); test: Partial agonist activity at PPARgamma in human BMMSC cells assessed as increase in size and number of intracellular lipid droplets during adipocyte differentiation in presence of IDX medium at 10 uM by Oil Red O/hematoxylin staining based analysis; format: cell-based; details: filed as partial agonist
T4 sequence (whole entry): T1 sequence (P37231 whole entry)

[5] = molecular target: T4, Peroxisome proliferator-activated receptor gamma (Homo sapiens); test: Partial agonist activity at GST-tagged PPAR-gamma ligand binding domain (unknown origin) assessed as inhibition of pioglitazone-induced recruitment of fluorescein-labeled PRIP/RAP250 coactivator peptide at 10 uM in presence of pioglitazone by LanthaScreen TR-FRET Coactivator assay; details: filed as partial agonist
[6] = molecular target: T4, Peroxisome proliferator-activated receptor gamma (Homo sapiens); test: Partial agonist activity at GST-tagged PPAR-gamma ligand binding domain (unknown origin) assessed as recruitment of fluorescein-labeled PRIP/RAP250 coactivator peptide at 10 uM by LanthaScreen TR-FRET Coactivator assay; details: filed as partial agonist
[7] = molecular target: T1, Peroxisome proliferator-activated receptor gamma; test: Partial agonist activity at GST-tagged PPAR-gamma ligand binding domain (unknown origin) assessed as recruitment of fluorescein-labeled SRC3 coactivator peptide by LanthaScreen TR-FRET Coactivator assay
[8] = molecular target: T1, Peroxisome proliferator-activated receptor gamma; test: Partial agonist activity at PPARgamma in human BMMSC cells assessed as promotion of adiponectin secretion by measuring increase in adiponectin level in presence of IDX medium by ELISA; format: cell-based
[9] = molecular target: T5, Peroxisome proliferator-activated receptor alpha (Homo sapiens) (UniProt Q07869); test: Displacement of fluormone pan-PPARgreen from GST-tagged human PPARalpha ligand binding domain at 10 uM by LanthaScreen TR-FRET competitive binding assay
T5 sequence (whole entry): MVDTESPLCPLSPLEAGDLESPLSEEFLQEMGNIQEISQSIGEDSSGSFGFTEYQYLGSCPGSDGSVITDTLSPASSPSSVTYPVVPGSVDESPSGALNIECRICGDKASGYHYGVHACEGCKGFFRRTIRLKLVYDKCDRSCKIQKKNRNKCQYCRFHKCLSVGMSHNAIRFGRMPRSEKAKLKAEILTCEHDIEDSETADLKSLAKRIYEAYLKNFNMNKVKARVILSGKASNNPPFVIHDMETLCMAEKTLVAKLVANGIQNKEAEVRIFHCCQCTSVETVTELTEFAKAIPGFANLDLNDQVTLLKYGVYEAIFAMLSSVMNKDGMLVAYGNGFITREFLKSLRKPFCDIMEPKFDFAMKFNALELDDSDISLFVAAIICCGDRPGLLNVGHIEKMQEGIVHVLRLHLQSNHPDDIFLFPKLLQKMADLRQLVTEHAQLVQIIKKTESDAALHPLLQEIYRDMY

[10] = molecular target: T1, Peroxisome proliferator-activated receptor gamma; test: Displacement of fluormone pan-PPARgreen from GST-tagged human PPARgamma ligand binding domain by LanthaScreen TR-FRET competitive binding assay
[11] = molecular target: T1, Peroxisome proliferator-activated receptor gamma; test: Partial agonist activity at GST-tagged PPAR-gamma ligand binding domain (unknown origin) assessed as recruitment of fluorescein-labeled SRC1 coactivator peptide by LanthaScreen TR-FRET Coactivator assay
[12] = molecular target: T1, Peroxisome proliferator-activated receptor gamma; test: Partial agonist activity at GST-tagged PPAR-gamma ligand binding domain (unknown origin) assessed as recruitment of fluorescein-labeled PRIP/RAP250 coactivator peptide by LanthaScreen TR-FRET Coactivator assay
[13] = molecular target: T6, Bile acid receptor (Homo sapiens) (UniProt Q96RI1); test: Agonist activity at GST-tagged FXR ligand binding domain (unknown origin) at 10 uM LanthaScreen TR-FRET Coactivator assay
T6 sequence (whole entry): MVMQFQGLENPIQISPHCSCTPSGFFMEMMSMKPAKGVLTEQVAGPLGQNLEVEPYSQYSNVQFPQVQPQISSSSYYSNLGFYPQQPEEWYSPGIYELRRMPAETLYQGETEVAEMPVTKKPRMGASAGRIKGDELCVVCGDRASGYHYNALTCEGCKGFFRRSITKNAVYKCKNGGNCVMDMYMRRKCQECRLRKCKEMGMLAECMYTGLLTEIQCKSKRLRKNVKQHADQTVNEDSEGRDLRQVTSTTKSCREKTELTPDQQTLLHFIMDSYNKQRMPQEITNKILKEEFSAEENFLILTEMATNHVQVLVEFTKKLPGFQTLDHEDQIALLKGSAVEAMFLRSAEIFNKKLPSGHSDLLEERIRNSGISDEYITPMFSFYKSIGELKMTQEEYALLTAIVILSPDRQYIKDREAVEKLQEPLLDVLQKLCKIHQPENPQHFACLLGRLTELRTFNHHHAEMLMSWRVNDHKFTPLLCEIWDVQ

| SMILES | Activity (Mesenchymal stem cells) | also measured |
| --- | --- | --- |
| COc1c(CC(=O)C(C)C)c(=O)[nH]c2c(OC)cccc12 | Non-Toxic | – |
| COc1c(CC=C(C)C)c(=O)n(C)c2ccccc12 | Non-Toxic | – |
| COc1ccc(-c2cc(=O)c3c(O)c(OC)ccc3n2C)cc1 | Non-Toxic | – |
| COc1c(CC(=O)C(C)C)c(=O)n(C)c2c(OC)cccc12 [ORIXALONE A] | Non-Toxic | – |
| COc1c2ccoc2cc2oc(=O)ccc12 [BERGAPTEN] | Non-Toxic | – |
| COc1c2c(cc3ccc(=O)oc13)C[C@@H](C(C)(C)OC(C)=O)O2 | Non-Toxic | – |
| C=C(C)C(O)COc1c2occc2cc2ccc(=O)oc12 (configuration not stated) | Non-Toxic | – |
| COc1c(CC=C(C)C)c(=O)[nH]c2c(OC)c(O)ccc12 | Non-Toxic | – |
| O=c1ccc2cc3ccoc3cc2o1 [PSORALEN] | Non-Toxic | – |
| CC(=O)[C@H]1CC[C@@H]2[C@@H]1[C@H](C(C)C)CC[C@]2(C)O | Non-Toxic | – |
| COc1c(CC(=O)C(C)C)c(=O)n(C)c2ccccc12 | Non-Toxic | – |
| COc1cc2ccc(=O)oc2c(OC)c1OC/C=C(\C)CCC=C(C)C [ALTISSIMACOUMARIN D] | Non-Toxic | EC50 [1]: > 30 µM |
| COC(C)(C)/C=C/C/C(C)=C/COc1ccc2ccc(=O)oc2c1 | Non-Toxic | – |
| COc1c(CC=C(C)C)c(=O)n(C)c2c(OC)cccc12 | Non-Toxic | – |
| COc1c(CC(=O)C(C)C)c(=O)n(C)c2c(OC)c(O)ccc12 | Non-Toxic | – |
| COc1c2ccoc2c(OC)c2oc(=O)ccc12 [ISOPIMPINELLIN] | Non-Toxic | – |
| COc1ccc(-c2cc(=O)c3c(O)cccc3n2C)cc1 | Non-Toxic | – |
| COc1c2occc2cc2ccc(=O)oc12 [METHOXSALEN] | Non-Toxic | – |
| C=C(C)C(O)CC/C(C)=C/COc1ccc2ccc(=O)oc2c1 (configuration not stated) | Non-Toxic | – |
| COc1cc2ccc(=O)oc2cc1OC/C=C(\C)CCC=C(C)C | Non-Toxic | Activity [2]: inactive; Activity [3]: inactive; Activity [4]: Active; Activity [5]: Active; Activity [6]: Active; EC50 [7]: > 30 µM; EC50 [8]: 25.8 µM; Activity [9]: inactive; Ki [10]: 10.7 µM; EC50 [11]: > 30 µM; EC50 [12]: 17.3 µM; Activity [13]: inactive |
| Cn1c(-c2ccccc2)cc(=O)c2c(O)cccc21 | Non-Toxic | – |
| C=C(C)C(CC/C(C)=C/COc1c(OC)cc2ccc(=O)oc2c1OC)OO (configuration not stated) | Non-Toxic | – |
| C=C[C@]1(C)C[C@H](OC(C)=O)[C@@H](C(C)(C)O)C[C@H]1C(=C)C | Non-Toxic | – |
| CC(C)=CCOc1c2occc2cc2ccc(=O)oc12 [PENTOSALEN] | Non-Toxic | – |
| CC(C)=CCC/C(C)=C/COc1ccc2ccc(=O)oc2c1 | Non-Toxic | EC50 [1]: > 30 µM |
| C=C[C@]1(C)C[C@H](O)[C@@H](C(C)(C)O)C[C@H]1C(=C)C | Non-Toxic | – |
| COc1ccc(Cl)cc1C(=O)NCCc1ccc(S(=O)(=O)NC(=O)NC2CCCCC2)cc1 [GLYBURIDE] | – | EC50 [1]: 2.3 µM |
| COc1cc2ccc(=O)oc2c(OC)c1OC/C=C(\C)C/C=C/C(C)(C)OO | Non-Toxic | – |
